# In US20250195484A1, “CEREBLON LIGANDS AND USES THEREOF” (priority 2022, published 2025):
# Target: T1, CBP (Homo sapiens, UniProt Q92793)
# T1 construct: endogenous in cells; host or cells: 22Rv1
# Assay: CBP degradation, western blot, 22Rv1
# Format: cell-based
# Conditions: 22Rv1, 5 h
# Protocol: (§1) WesternT Blot Analysis. Western blot analysis was performed essentially as described previously. The cells treated with indicated compounds were lysed in Radioimmunoprecipitation Assay Protein Lysis and Extraction Buffer (25 mmol/L Tris.HCl, pH 7.6, 150 mmol/L NaCl, 1% Nonidet P-40, 1% sodium deoxycholate, and 0.1% sodium dodecyl sulfate) containing proteinase inhibitor cocktail (Roche Diagnostics, Mannheim, Germany). Equal amounts of total protein were electrophoresed through 10% SDS-polyacrylamide gels after determination of protein concentration by BCA assay (Fisher Scientific, Pittsburgh, PA). The separated protein bands were transferred onto PVDF membranes (GE Healthcare Life Sciences, Marlborough, MA) and blotted against different antibodies, as indicated. The blots were scanned, and the band intensities were quantified using GelQuant.NET software provided by biochemlabsolutions.com. The relative mean intensity of target proteins was expressed after normalization to the intensity of glyceraldehyde-3-phosphate dehydrogenase bands.
# T1 sequence (Q92793 whole entry): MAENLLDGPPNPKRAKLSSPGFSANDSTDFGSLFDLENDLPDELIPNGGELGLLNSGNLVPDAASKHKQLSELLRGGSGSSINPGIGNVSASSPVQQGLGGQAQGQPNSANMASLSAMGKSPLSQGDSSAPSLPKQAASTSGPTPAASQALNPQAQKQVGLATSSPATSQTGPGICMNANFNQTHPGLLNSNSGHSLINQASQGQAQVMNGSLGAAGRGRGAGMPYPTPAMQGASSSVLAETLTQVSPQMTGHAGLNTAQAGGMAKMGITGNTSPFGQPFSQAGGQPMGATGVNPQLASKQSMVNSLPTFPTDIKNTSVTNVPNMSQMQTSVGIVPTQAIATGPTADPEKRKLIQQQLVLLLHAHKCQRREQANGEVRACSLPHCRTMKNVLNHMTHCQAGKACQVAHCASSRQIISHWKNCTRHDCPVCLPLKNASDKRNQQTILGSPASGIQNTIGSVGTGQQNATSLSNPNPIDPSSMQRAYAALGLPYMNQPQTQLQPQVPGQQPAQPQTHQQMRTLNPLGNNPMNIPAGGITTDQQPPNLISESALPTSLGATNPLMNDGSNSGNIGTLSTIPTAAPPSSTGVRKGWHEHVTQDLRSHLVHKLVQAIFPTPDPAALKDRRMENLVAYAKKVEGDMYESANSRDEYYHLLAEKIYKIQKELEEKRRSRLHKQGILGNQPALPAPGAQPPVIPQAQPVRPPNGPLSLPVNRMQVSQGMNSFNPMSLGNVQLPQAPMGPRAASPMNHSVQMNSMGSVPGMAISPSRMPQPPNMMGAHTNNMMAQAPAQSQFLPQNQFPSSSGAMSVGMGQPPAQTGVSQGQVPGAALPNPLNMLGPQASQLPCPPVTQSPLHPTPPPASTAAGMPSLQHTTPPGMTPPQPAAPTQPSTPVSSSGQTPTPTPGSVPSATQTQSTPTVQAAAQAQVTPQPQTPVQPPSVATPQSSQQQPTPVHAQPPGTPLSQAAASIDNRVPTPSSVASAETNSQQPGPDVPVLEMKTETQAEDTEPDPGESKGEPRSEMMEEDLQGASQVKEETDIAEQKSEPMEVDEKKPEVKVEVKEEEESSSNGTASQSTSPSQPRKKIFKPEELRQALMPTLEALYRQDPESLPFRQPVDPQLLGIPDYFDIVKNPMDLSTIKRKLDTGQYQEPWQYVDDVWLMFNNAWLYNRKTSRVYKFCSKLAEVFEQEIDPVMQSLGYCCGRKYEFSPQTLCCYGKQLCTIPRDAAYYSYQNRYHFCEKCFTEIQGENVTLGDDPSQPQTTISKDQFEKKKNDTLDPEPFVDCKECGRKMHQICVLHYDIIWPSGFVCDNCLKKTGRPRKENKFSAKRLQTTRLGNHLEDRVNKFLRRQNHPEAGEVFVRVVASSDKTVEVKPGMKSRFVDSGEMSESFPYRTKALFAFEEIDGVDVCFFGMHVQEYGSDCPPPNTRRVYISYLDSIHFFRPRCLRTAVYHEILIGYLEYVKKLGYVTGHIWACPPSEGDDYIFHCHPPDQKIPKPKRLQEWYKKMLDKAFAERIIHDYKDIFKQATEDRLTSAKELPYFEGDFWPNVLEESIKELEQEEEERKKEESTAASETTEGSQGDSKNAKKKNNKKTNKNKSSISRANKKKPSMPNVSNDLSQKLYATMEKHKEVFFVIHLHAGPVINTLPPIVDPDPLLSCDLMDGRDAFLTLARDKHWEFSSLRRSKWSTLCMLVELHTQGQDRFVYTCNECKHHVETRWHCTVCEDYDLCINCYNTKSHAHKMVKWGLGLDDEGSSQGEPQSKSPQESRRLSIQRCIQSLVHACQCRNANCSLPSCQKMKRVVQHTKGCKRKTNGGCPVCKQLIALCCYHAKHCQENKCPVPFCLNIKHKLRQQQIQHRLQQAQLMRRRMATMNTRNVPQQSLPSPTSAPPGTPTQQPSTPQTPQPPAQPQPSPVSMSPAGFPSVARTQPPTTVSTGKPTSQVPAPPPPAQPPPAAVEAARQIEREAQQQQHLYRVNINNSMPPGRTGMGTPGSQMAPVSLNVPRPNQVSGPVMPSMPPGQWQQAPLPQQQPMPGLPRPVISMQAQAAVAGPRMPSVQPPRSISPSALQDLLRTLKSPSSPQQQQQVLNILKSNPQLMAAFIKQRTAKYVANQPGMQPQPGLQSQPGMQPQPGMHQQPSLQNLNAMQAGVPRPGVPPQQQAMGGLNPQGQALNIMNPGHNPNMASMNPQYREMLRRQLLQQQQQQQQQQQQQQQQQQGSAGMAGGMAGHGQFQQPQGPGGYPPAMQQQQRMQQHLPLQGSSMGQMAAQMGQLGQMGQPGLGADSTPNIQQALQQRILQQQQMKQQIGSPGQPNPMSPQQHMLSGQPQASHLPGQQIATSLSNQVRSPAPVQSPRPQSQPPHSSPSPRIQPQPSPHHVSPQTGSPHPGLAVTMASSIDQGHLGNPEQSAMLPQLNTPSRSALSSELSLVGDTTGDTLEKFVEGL
SMILES,CBP Degradation DCmax,DC50
"CC(=O)N1CCc2c(c(N3CCCc4cc(-c5cnn(C)c5)c(C(F)F)cc43)nn2C2CCN(CC(=O)N3CCC4(CC3)COc3c4ccc4c3CN([C@H]3CCC(=O)NC3=O)C4=O)CC2)C1 [CPD-001, (S)-3-(1′-(2-(4-(5-acetyl-3-(7-(difluoromethyl)-6-(1-methyl-1H-pyrazol-4-yl)-3,4-dihydroquinolin-1(2H)-yl)-4,5,6,7-tetrahydro-1H-pyrazolo[4,3-c]pyridin-1-yl)piperidin-1-yl)acetyl)-6-oxo-6,8-dihydro-2H,7H-spiro[furo[2,3-e]isoindole-3,4′-piperidin]-7-yl)piperidine-2,6-dione]",A (A (≥90%)),< 0.0001 µM
"CC(=O)N1CCc2c(c(N3CCCc4cc(-c5cnn(C)c5)c(C(F)F)cc43)nn2C2CCN(C(=O)CN3CCC4(CC3)COc3c4ccc4c3CN([C@H]3CCC(=O)NC3=O)C4=O)CC2)C1 [CPD-002, (S)-3-(1′-(2-(4-(5-acetyl-3-(7-(difluoromethyl)-6-(1-methyl-1H-pyrazol-4-yl)-3,4-dihydroquinolin-1(2H)-yl)-4,5,6,7-tetrahydro-1H-pyrazolo[4,3-c]pyridin-1-yl)piperidin-1-yl)-2-oxoethyl)-6-oxo-6,8-dihydro-2H,7H-spiro[furo[2,3-e]isoindole-3,4′-piperidin]-7-yl)piperidine-2,6-dione]",A (A (≥90%)),< 0.0001 µM
"CC(=O)N1CCc2c(c(N3CCCc4cc(-c5cnn(C)c5)c(C(F)F)cc43)nn2C2CCC(N3CCC4(CC3)COc3c4ccc4c3CN([C@H]3CCC(=O)NC3=O)C4=O)CC2)C1 (stereo partly drawn) [CPD-003, (S)-3-(1′-(4-(5-acetyl-3-(7-(difluoromethyl)-6-(1-methyl-1H-pyrazol-4-yl)-3,4-dihydroquinolin-1(2H)-yl)-4,5,6,7-tetrahydro-1H-pyrazolo[4,3-c]pyridin-1-yl)cyclohexyl)-6-oxo-6,8-dihydro-2H,7H-spiro[furo[2,3-e]isoindole-3,4′-piperidin]-7-yl)piperidine-2,6-dione]",A (A (≥90%)),< 0.0001 µM
"CC(=O)N1CCc2c(c(N3CCCc4cc(-c5cnn(C)c5)c(C(F)F)cc43)nn2[C@H]2CC[C@H](CN3CCC4(CC3)COc3c4ccc4c3CN([C@H]3CCC(=O)NC3=O)C4=O)CC2)C1 [CPD-004, (S)-3-(1′-(((1r,4S)-4-(5-acetyl-3-(7-(difluoromethyl)-6-(1-methyl-1H-pyrazol-4-yl)-3,4-dihydroquinolin-1(2H)-yl)-4,5,6,7-tetrahydro-1H-pyrazolo[4,3-c]pyridin-1-yl)cyclohexyl)methyl)-6-oxo-6,8-dihydro-2H,7H-spiro[furo[2,3-e]isoindole-3,4′-piperidin]-7-yl)piperidine-2,6-dione]",A (A (≥90%)),< 0.0001 µM

# Target: T2, P300 (Homo sapiens, UniProt Q09472)
# T2 construct: endogenous in cells; host or cells: 22Rv1
# Assay: P300 degradation, western blot, 22Rv1
# Format: cell-based
# Conditions: 22Rv1, 5 h
# Protocol: as §1
# T2 sequence (Q09472 whole entry): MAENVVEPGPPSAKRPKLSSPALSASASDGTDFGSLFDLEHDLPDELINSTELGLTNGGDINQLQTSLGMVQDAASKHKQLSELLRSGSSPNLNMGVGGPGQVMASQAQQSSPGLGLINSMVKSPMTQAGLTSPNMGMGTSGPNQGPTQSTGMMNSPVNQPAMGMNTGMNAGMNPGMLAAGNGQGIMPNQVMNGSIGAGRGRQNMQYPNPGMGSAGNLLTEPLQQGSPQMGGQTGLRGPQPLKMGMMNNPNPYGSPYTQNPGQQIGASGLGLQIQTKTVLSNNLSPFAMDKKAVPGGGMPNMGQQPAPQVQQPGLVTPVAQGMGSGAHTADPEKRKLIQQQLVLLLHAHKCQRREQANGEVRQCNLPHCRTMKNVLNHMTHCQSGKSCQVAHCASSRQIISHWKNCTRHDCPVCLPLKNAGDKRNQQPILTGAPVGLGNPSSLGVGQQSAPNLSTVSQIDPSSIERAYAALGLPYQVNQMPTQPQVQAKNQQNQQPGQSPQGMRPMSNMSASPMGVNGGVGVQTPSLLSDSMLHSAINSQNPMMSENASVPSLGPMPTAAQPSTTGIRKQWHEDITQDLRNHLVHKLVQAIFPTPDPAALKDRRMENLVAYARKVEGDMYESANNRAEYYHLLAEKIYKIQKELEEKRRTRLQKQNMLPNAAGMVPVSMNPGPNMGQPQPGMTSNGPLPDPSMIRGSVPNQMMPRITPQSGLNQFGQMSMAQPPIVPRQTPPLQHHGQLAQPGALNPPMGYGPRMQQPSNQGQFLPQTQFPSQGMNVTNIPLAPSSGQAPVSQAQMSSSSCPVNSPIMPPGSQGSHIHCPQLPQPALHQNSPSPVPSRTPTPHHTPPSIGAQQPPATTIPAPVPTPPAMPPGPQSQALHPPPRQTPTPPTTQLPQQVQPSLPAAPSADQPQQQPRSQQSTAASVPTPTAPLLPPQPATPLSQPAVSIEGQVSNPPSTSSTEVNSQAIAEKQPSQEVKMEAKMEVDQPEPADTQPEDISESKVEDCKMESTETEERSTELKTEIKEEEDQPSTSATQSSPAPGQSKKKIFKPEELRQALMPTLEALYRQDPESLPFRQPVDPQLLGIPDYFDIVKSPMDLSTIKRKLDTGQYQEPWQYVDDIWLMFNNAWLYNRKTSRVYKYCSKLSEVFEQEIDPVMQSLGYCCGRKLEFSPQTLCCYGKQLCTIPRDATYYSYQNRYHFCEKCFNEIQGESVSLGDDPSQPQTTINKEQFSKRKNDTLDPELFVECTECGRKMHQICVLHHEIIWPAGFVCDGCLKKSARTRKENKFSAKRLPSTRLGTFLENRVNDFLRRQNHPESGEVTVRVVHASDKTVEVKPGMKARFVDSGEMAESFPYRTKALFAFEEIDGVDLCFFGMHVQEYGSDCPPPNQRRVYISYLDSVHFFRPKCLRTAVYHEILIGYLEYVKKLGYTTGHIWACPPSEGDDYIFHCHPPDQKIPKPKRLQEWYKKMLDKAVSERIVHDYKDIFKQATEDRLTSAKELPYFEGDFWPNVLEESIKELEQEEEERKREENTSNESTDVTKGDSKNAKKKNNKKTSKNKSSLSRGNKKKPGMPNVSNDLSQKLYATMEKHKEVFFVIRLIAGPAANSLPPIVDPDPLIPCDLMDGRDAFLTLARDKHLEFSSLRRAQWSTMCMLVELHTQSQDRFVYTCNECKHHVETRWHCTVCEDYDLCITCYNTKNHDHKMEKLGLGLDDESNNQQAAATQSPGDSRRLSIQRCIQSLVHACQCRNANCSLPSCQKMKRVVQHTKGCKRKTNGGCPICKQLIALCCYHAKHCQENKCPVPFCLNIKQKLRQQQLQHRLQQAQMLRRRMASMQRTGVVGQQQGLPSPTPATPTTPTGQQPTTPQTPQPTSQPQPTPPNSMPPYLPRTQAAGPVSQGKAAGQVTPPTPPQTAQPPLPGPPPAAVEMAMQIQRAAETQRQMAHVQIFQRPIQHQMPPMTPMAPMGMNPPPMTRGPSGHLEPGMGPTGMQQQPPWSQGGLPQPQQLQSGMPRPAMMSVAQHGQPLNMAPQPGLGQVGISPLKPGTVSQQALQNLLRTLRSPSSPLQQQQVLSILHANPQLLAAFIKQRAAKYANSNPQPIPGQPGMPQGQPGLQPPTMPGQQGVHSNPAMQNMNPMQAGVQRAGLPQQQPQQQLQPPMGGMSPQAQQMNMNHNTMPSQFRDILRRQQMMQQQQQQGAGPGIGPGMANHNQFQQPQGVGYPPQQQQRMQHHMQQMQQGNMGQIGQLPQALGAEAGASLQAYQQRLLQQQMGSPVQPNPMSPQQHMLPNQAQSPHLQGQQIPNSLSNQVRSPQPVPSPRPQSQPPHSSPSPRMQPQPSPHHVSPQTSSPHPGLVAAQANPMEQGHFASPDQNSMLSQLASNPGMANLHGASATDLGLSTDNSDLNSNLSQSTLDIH
SMILES,DC50,P300 Degradation DCmax
"CC(=O)N1CCc2c(c(N3CCCc4cc(-c5cnn(C)c5)c(C(F)F)cc43)nn2C2CCN(CC(=O)N3CCC4(CC3)COc3c4ccc4c3CN([C@H]3CCC(=O)NC3=O)C4=O)CC2)C1 [CPD-001, (S)-3-(1′-(2-(4-(5-acetyl-3-(7-(difluoromethyl)-6-(1-methyl-1H-pyrazol-4-yl)-3,4-dihydroquinolin-1(2H)-yl)-4,5,6,7-tetrahydro-1H-pyrazolo[4,3-c]pyridin-1-yl)piperidin-1-yl)acetyl)-6-oxo-6,8-dihydro-2H,7H-spiro[furo[2,3-e]isoindole-3,4′-piperidin]-7-yl)piperidine-2,6-dione]",0.0001 to 0.001 µM,A (A (≥90%))
"CC(=O)N1CCc2c(c(N3CCCc4cc(-c5cnn(C)c5)c(C(F)F)cc43)nn2C2CCN(C(=O)CN3CCC4(CC3)COc3c4ccc4c3CN([C@H]3CCC(=O)NC3=O)C4=O)CC2)C1 [CPD-002, (S)-3-(1′-(2-(4-(5-acetyl-3-(7-(difluoromethyl)-6-(1-methyl-1H-pyrazol-4-yl)-3,4-dihydroquinolin-1(2H)-yl)-4,5,6,7-tetrahydro-1H-pyrazolo[4,3-c]pyridin-1-yl)piperidin-1-yl)-2-oxoethyl)-6-oxo-6,8-dihydro-2H,7H-spiro[furo[2,3-e]isoindole-3,4′-piperidin]-7-yl)piperidine-2,6-dione]",< 0.0001 µM,A (A (≥90%))
"CC(=O)N1CCc2c(c(N3CCCc4cc(-c5cnn(C)c5)c(C(F)F)cc43)nn2C2CCC(N3CCC4(CC3)COc3c4ccc4c3CN([C@H]3CCC(=O)NC3=O)C4=O)CC2)C1 (stereo partly drawn) [CPD-003, (S)-3-(1′-(4-(5-acetyl-3-(7-(difluoromethyl)-6-(1-methyl-1H-pyrazol-4-yl)-3,4-dihydroquinolin-1(2H)-yl)-4,5,6,7-tetrahydro-1H-pyrazolo[4,3-c]pyridin-1-yl)cyclohexyl)-6-oxo-6,8-dihydro-2H,7H-spiro[furo[2,3-e]isoindole-3,4′-piperidin]-7-yl)piperidine-2,6-dione]",< 0.0001 µM,A (A (≥90%))
"CC(=O)N1CCc2c(c(N3CCCc4cc(-c5cnn(C)c5)c(C(F)F)cc43)nn2[C@H]2CC[C@H](CN3CCC4(CC3)COc3c4ccc4c3CN([C@H]3CCC(=O)NC3=O)C4=O)CC2)C1 [CPD-004, (S)-3-(1′-(((1r,4S)-4-(5-acetyl-3-(7-(difluoromethyl)-6-(1-methyl-1H-pyrazol-4-yl)-3,4-dihydroquinolin-1(2H)-yl)-4,5,6,7-tetrahydro-1H-pyrazolo[4,3-c]pyridin-1-yl)cyclohexyl)methyl)-6-oxo-6,8-dihydro-2H,7H-spiro[furo[2,3-e]isoindole-3,4′-piperidin]-7-yl)piperidine-2,6-dione]",< 0.0001 µM,A (A (≥90%))

# Target: T3, STAT3 (Homo sapiens, UniProt P40763)
# T3 construct: host or cells: HeLa (STAT3-HiBiT CRISPR knock-in clone)
# Assay: STAT3 degradation HiBiT assay (STAT3-HIBIT KI HeLa)
# Format: cell-based
# Conditions: STAT3-HIBIT KI HeLa cells, 24 hours
# Protocol: STAT3-HIBIT KI HeLa cell line was purchased from Promega. This cell line is a clone created by using CRISPR-Cas9 to fuse HiBIT to the 3′ end of STAT3 in HeLa cells. DMEM medium and FBS were purchased from Gibco/Thermo Fisher Scientific. STAT3 degradation was determined based on quantification of luminescent signal using Nano-Glo HiBIT Lytic Detection System. In a typical procedure, cells seeded at 20000 cells per well in 96-well white plates (Corning) were incubated with serially diluted compounds for 24 hours at 37° C. with 5% CO2. At the end of treatment, Nano-Glo HiBIT Lytic Detection reagents was added to the wells and luminescence was acquired on TECAN PSARK plate reader. Untreated cells were used as control. Data points were fit with a four-parameter equation to generate a concentration-response curve. IC50 values were calculated using a nonlinear regression analysis of the mean±SD from triplicate.
SMILES,DC50,Dmax
"NC(=O)CC[C@H](NC(=O)[C@@H]1CC[C@@H]2CCN(C(=O)CCCCC(=O)N3CCC4(CC3)COc3c4ccc4c3CN([C@H]3CCC(=O)NC3=O)C4=O)C[C@H](NC(=O)c3cc4cc(C(F)(F)P(=O)(O)O)ccc4s3)C(=O)N21)C(=O)NC(c1ccccc1)c1ccccc1 [STD 22, ((2-(((5S,8S,10aR)-8-(((S)-5-amino-1-(benzhydrylamino)-1,5-dioxopentan-2-yl)carbamoyl)-3-(6-(7-((S)-2,6-dioxopiperidin-3-yl)-6-oxo-7,8-dihydro-2H,6H-spiro[furo[2,3-e]isoindole-3,4′-piperidin]-1′-yl)-6-oxohexanoyl)-6-oxodecahydropyrrolo[1,2-a][1,5]diazocin-5-yl)carbamoyl)benzo[b]thiophen-5-yl)difluoromethyl)phosphonic acid]",1 to 10 µM,< 40%

# Target: CRBN/DDB1 (Homo sapiens, UniProt Q96SW2)
# Assay: biochemical
# Conditions: not given
row,SMILES,IC50
1,"O=C1CCC(N2Cc3cc4c(cc3C2=O)OCC42CCNCC2)C(=O)N1 (stereo not shown) [Compound A1, 3-(7-oxo-5,7-dihydro-2H,6H-spiro[furo[2,3-f]isoindole-3,4′-piperidin]-6-yl)piperidine-2,6-dione]",0.94 µM
2,"O=C1CCC(N2Cc3cc4c(cc3C2=O)CCOC42CCNCC2)C(=O)N1 (stereo not shown) [Compound A3, 3-(1′-oxo-1′,3′,7′,8′-tetrahydro-2′H-spiro[piperidine-4,5′-pyrano[3,4-f]isoindol]-2′-yl)piperidine-2,6-dione]",0.27 µM
3,"CN1CCC2(CC1)COc1cc3c(cc12)CN(C1CCC(=O)NC1=O)C3=O (stereo not shown) [Compound A4, 3-(1′-methyl-7-oxo-5,7-dihydro-2H,6H-spiro[furo[2,3-f]isoindole-3,4′-piperidin]-6-yl)piperidine-2,6-dione]",0.096 µM
4,"CC(=O)N1CCC2(CC1)COc1cc3c(cc12)CN(C1CCC(=O)NC1=O)C3=O (stereo not shown) [Compound A5, 3-(1′-acetyl-7-oxo-5,7-dihydro-2H,6H-spiro[furo[2,3-f]isoindole-3,4′-piperidin]-6-yl)piperidine-2,6-dione]",3.8 µM
5,"CN1CCC2(CC1)OCCc1cc3c(cc12)CN(C1CCC(=O)NC1=O)C3=O (stereo not shown) [Compound A6, 3-(1-methyl-1′-oxo-1′,3′,7′,8′-tetrahydro-2′H-spiro[piperidine-4,5′-pyrano[3,4-f]isoindol]-2′-yl)piperidine-2,6-dione]",2.2 µM
6,"CC(=O)N1CCC2(CC1)OCCc1cc3c(cc12)CN(C1CCC(=O)NC1=O)C3=O (stereo not shown) [Compound A7, 3-(1-acetyl-1′-oxo-1′,3′,7′,8′-tetrahydro-2′H-spiro[piperidine-4,5′-pyrano[3,4-f]isoindol]-2′-yl)piperidine-2,6-dione]",3 µM
7,"O=C1CCC(N2Cc3c(ccc4c3OCC43CCCNCC3)C2=O)C(=O)N1 (stereo not shown) [Compound A8, 3-(6′-oxo-6′,8′-dihydro-2′H,7′H-spiro[azepane-4,3′-furo[2,3-e]isoindol]-7′-yl)piperidine-2,6-dione]",0.75 µM
8,"O=C1CCC(N2Cc3c(ccc4c3OCC43CCNC3)C2=O)C(=O)N1 (stereo not shown) [Compound A9, 3-(6-oxo-6,8-dihydro-2H,7H-spiro[furo[2,3-e]isoindole-3,3′-pyrrolidin]-7-yl)piperidine-2,6-dione]",0.21 µM
9,"CC(C)(C)OC(=O)N1CCC2(CC1)COc1cc3c(cc12)CN(C1CCC(=O)NC1=O)C3=O (stereo not shown) [Compound A14, tert-butyl 6-(2,6-dioxopiperidin-3-yl)-7-oxo-6,7-dihydro-2H,5H-spiro[furo[2,3-f]isoindole-3,4′-piperidine]-1′-carboxylate]",0.29 µM
10,"O=C1CC[C@H](N2Cc3c(ccc4c3OCC43CCNCC3)C2=O)C(=O)N1 [Compound A15, (S)-3-(6-oxo-6,8-dihydro-2H,7H-spiro[furo[2,3-e]isoindole-3,4′-piperidin]-7-yl)piperidine-2,6-dione]",0.055 µM
11,"O=C1CCC(N2Cc3c(ccc4c3OCC43CCNCC3(F)F)C2=O)C(=O)N1 (stereo not shown) [Compound A17, 3-(3′,3′-difluoro-6-oxo-6,8-dihydro-2H,7H-spiro[furo[2,3-e]isoindole-3,4′-piperidin]-7-yl)piperidine-2,6-dione]",0.23 µM
12,"O=C1CC[C@H](NC(=O)c2ccc3c(n2)OCC32CCNCC2)C(=O)N1 [Compound A18, (S)-N-(2,6-dioxopiperidin-3-yl)-2H-spiro[furo[2,3-b]pyridine-3,4′-piperidine]-6-carboxamide]",> 10000 µM
13,"Cc1cc2c(c3c1C(=O)N([C@H]1CCC(=O)NC1=O)C3)OCC21CCNCC1 [Compound A19, (S)-3-(5-methyl-6-oxo-6,8-dihydro-2H,7H-spiro[furo[2,3-e]isoindole-3,4′-piperidin]-7-yl)piperidine-2,6-dione]",0.18 µM
14,"O=C1CC[C@H](N2Cc3c4c(cc(Cl)c3C2=O)C2(CCNCC2)CO4)C(=O)N1 [Compound A20, (S)-3-(5-chloro-6-oxo-6,8-dihydro-2H,7H-spiro[furo[2,3-e]isoindole-3,4′-piperidin]-7-yl)piperidine-2,6-dione]",0.038 µM
15,"COc1cc2c(c3c1C(=O)N([C@H]1CCC(=O)NC1=O)C3)OCC21CCNCC1 [Compound A21, (S)-3-(5-methoxy-6-oxo-6,8-dihydro-2H,7H-spiro[furo[2,3-e]isoindole-3,4′-piperidin]-7-yl)piperidine-2,6-dione]",0.17 µM
16,"COc1cc2c(c3c1C(=O)N([C@@H]1CCC(=O)NC1=O)C3)OCC21CCNCC1 [Compound A22, (R)-3-(5-methoxy-6-oxo-6,8-dihydro-2H,7H-spiro[furo[2,3-e]isoindole-3,4′-piperidin]-7-yl)piperidine-2,6-dione]",3.9 µM
